We go through six molecules from US9856225B2, “Substituted phenazines as antimicrobial agents” (University of Florida Research Foundation, Incorporated, priority 2013, dated 2018).

In brackets after ≈: the same amount, converted by molar mass. Several values for one entry are separate records, joined by “and”; a condition that tells them apart may be missing. Equal values may be shown once. Marks after values point to notes of the source that are not given here.

By EC50 is commonly meant the concentration at which the effect is half-maximal. As a reminder, the MIC is the lowest concentration found to suppress growth.

The subject of assay [1] is MRSA-2 biofilms. Description: Biofilm eradication assay (MBEC). The class given is cell-based, Staphylococcus aureus. As to conditions: for Biofilm Eradication MBEC: MRSA-2. How it is done:
Biofilm eradication assays. […] The protocol for the biofilm eradication assays was essentially the same as the protocols reported in Eun et al., J. Am. Chem. Soc., 2012, 134, 11322 and Ceri et al., J. Clin. Microbiol., 1999, 37, 1771. Biofilm eradication assays were essentially biofilm dispersion assays with the addition of a final treatment with fresh media (and incubation at 37° C. for 24 hours) instead of crystal violet staining. This final incubation allowed viable cells within the biofilm to grow. At the end of this final incubation in biofilm eradication assays, microtiter wells void of turbidity represented eradicated biofilms, and the lowest concentration at which no visible growth was observed was referred to as the minimum biofilm eradication concentration (MBEC). Potent biofilm eradicating small molecules are extremely rare (Fletcher et al., Tetrahedron, 2014, 70, 6373; Jennings et al., ChemBioChem, 2014, 15, 2211). For these experiments, MRSA-2 was selected as the model since MRSA-2 is a multidrug-resistant, biofilm-forming clinical isolate of Staphylococcus aureus (Priyaja et al., Cytotechnol., 2014, doi: 10.1007/s10616-014-9765-5).

The test system of assay [2] is MRSA-2 biofilms. Description: MRSA-2 biofilm dispersion assay. Format: cell-based. To be noted: Staphylococcus aureus, 24 h, read-out: MRSA-2 biofilm dispersion EC50.
In assay [3] the test system is MRSA-2. Description: MIC against MRSA-2. Format: cell-based. As to conditions: Staphylococcus aureus, read-out: MIC against MRSA-2. As to the method: Antibiotic Susceptibility Tests (MIC Assay Protocol). The minimum inhibitory concentration (MIC) for each compound described herein was determined by the broth microdilution method as recommended by the Clinical and Laboratory Standards Institute (CLSI) (Clinical and Laboratory Standards Institute. 2009. Methods for dilution antimicrobial susceptibility tests for bacteria that grow aerobically; approved standard, eighth edition (M7-A8)). In a 96-well plate, eleven two-fold serial dilutions of each compound were made in a final volume of 100 μL Luria Broth (one column served as a blank; see the MIC assay described herein). Each well was inoculated with 10^5 bacterial cells at the initial time of incubation, prepared from a fresh log phase culture (OD600 of 0.5). […] The concentration range tested for each compound during this study was 0.10 to 100 μM. DMSO served as the vehicle and negative control in each microdilution MIC assay. DMSO was serially diluted at the same concentration as the compounds with a top concentration of 1% v/v. Bacterial strains used: Staphylococcus aureus (ATCC 25923), Staphylococcus epidermidis (ATCC 12228) and Pseudomonas aeruginosa (PAO1). […]
Vancomycin's activity against MRSA-2. Vancomycin was also evaluated against MRSA-2 since vancomycin has been considered to be the drug of last resort against MRSA infections.

In assay [4] the test system is Pseudomonas aeruginosa (PAO1). Kind of assay: MIC broth microdilution (CLSI), Luria Broth. The class given is cell-based. As to conditions: Table 1, PAO1, read-out: Pseudomonas aeruginosa MIC. The gist of the method:
(§1)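 Two-fold serial dilutions (0.10–100 μM, eleven points) in Luria Broth, each well inoculated with 10^5 cells from log-phase culture (OD600 0.5), per CLSI broth microdilution. DMSO vehicle up to 1% v/v as negative control; kanamycin positive control for the staphylococci.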
(In general: Dilution methods test growth across graded concentrations, often in twofold steps.)

Assay [5] relates to Staphylococcus epidermidis (ATCC 12228). Description: MIC broth microdilution (CLSI), Luria Broth. Format: cell-based. As to conditions: for MIC: ATCC12228, Table 1, ATCC 12228, read-out: Staphylococcus epidermidis MIC; for fold more potent than compound 1: from MIC. The gist of the method:
as §1

Consider `CCC(=O)Oc1c(Br)cc(Br)c2nc3ccccc3nc12` [Compound 4a], for which the “Biofilm Eradication MBEC” value in assay [1] was 125 µM.

For `Oc1c(Br)cc(Br)c2nc3ccccc3nc12` [Compound 11, 2,4-Dibromophenazin-1-ol], the EC50 in assay [2] turned out to be 3.53 µM. Moreover, the minimal inhibitory concentration (MIC) is 1.56 µM (≈ 0.552 µg/mL) in assay [3]; over 100 µM in assay [4]; 0.78 µM to 1.56 µM and 0.28 µg/mL to 0.55 µg/mL in assay [5]. Also, in assay [5], the “fold more potent than compound 1” value was determined as 32 fold. Moreover, the “Biofilm Eradication MBEC” value in assay [1] is recorded as 100-200^c μM. In assay [1] (MRSA-2 biofilm vs planktonic), the “MBEC:MIC ratio” value is given as 64-128.

Turning to `CC(=O)Oc1c(Br)cc(Br)c2nc3ccccc3nc12` [Compound 21, 2,4-Dibromophenazin-1-yl acetate], in assay [5], the MIC was 0.78 µM and 0.31 µg/mL; the “fold more potent than compound 1” value was found to be 64 fold.

Consider `O=C(Oc1c(Br)cc(Br)c2nc3ccccc3nc12)c1ccccc1` [Compound 23, 2,4-Dibromophenazin-1-yl benzoate], for which the MIC in assay [5] is 1.56 µM and 0.72 µg/mL.

Take `O=C(Oc1c(Br)cc(Br)c2nc3ccccc3nc12)c1ccco1` [Compound 23a]: the “Biofilm Eradication MBEC” value in assay [1] fell in the range of 62.5 to 100 µM.

Consider `O=C(OCC(Cl)(Cl)Cl)Oc1c(Br)cc(Br)c2nc3ccccc3nc12` [Compound 27a], for which, in assay [1], the “Biofilm Eradication MBEC” value came out at 125 µM.
